PMC5038265 (Antimicrobial Agents and Chemotherapy, 2016)
≈ marks a conversion by molar mass, not a printed value. Where two headings read alike, the source gives them in different places.

Legend:
[1] = molecular target: M. tuberculosis LeuRS (Mycobacterium tuberculosis, UniProt P9WFV1); assay: biochemical; parameters: species or system M. tuberculosis H37Rv
[2] = tested on: M. tuberculosis H37Rv; assay: MIC for M. tuberculosis H37Rv (resazurin/alamarBlue); assay type: cell-based, Mycobacterium tuberculosis; details: for MIC: Mycobacterium tuberculosis, H37RV, read-out: MIC M.tb H37Rv; for improvement of MIC values over compound 1: M. tuberculosis H37Rv
[3] = tested on: HepG2 cells; assay: HepG2 cell viability (Janus green staining); assay type: cell-based; details: Homo sapiens, 168 h, HepG2, 7 days, read-out: Mean EC50 ± SD Cell viability
Description: (§1) The human liver carcinoma-derived HepG2 cell line was obtained from the ATCC (ATCC HB-8065). HepG2 cells were grown in Dulbecco's modified Eagle's medium containing 10% fetal calf serum, 1 mM sodium pyruvate, 0.1 mM essential amino acids, and 50 U/ml penicillin-streptomycin at 37°C with 5% CO2. HepG2 cells were seeded into 96-well plates at 3,000 cells/200 μl/well in cell culture medium. Cells were then grown in the presence of the compounds at 37°C in 10% CO2 for 7 days in at least duplicate concentrations, with the medium and compounds being replaced on the fourth day. After 7 days, the levels of SDHA (subunit A of the succinate dehydrogenase complex) and COX1 (cytochrome c oxidase) were determined by using the MitoSciences In-Cell enzyme-linked immunosorbent assay (ELISA) kit. Janus green staining was used to determined cell viability after 7 days (In-Cell ELISA kit, catalog number MS643).

[4] = tested on: SDHA in HepG2 cells; assay: Mitochondrial protein synthesis assay, SDHA level; assay type: cell-based; details: Homo sapiens, 168 h; HepG2, 7 days; read-out: Mean EC50 ± SD SDHA
Description: as §1

[5] = tested on: COX1 in HepG2 cells; assay: Mitochondrial protein synthesis assay, COX1 level; assay type: cell-based; details: Homo sapiens, 168 h; HepG2, 7 days; read-out: Mean EC50 ± SD COX1
Description: as §1

[6] = tested on: Vero cells; assay: In vitro cytotoxicity assay (MTT); assay type: cell-based, African green monkey; details: Chlorocebus sabaeus, 72 h
Description: Vero epithelial cells (from African green monkey; ATCC CCL-81) were cultured in Dulbecco's modified Eagle's medium (DMEM) supplemented with 10% fetal bovine serum (FBS) and maintained in a humidified incubator (37°C in 5% CO2). Cells were dislodged with a cell scraper, collected by centrifugation, resuspended in fresh medium at ∼10^6 cells/ml, dispensed into 96-well microtiter plates ([…]), and incubated for 18 h at 37°C. Twofold serial dilutions of test compounds in DMEM with FBS were subsequently added, and cells were incubated for another 72 h. In triplicate studies, the cytopathic effects of compounds were evaluated colorimetrically by using the 3-(4,5-dimethyl-2-thiazolyl)-2,5-diphenyl-2H-tetrazolium bromide (MTT) cell proliferation assay (ATCC). IC50 data were obtained from dose-response curves plotted by using GraphPad Prism 5.

[7] = in vivo; details: mouse, 30 mg/kg
Description: Mouse pharmacokinetic studies were conducted by using female CD-1 mice for compounds 1, 11, and 12, while BALB/c mice were used for compound 13. Mouse body weights were 19 to 28 g, and on the morning of dosing, mice were split randomly into 3 dosing groups to receive the test article by either intravenous (i.v.) tail vein injection or oral (p.o.) gavage. After dosing, blood samples were collected via cardiac puncture at specific time points (n = 3 mice/time point) through 24 h (K2EDTA as an anticoagulant) and processed for plasma. Antibiotic concentrations in the plasma samples were analyzed by liquid chromatography-tandem mass spectrometry (LC-MS/MS). The LC-MS/MS analysis was conducted by using analyte/internal standard peak area methods. The internal standard was AN3365 ([21]), and the instrument used was an API4000 QTRAP instrument (AB Sciex). The limit of quantitation (LOQ) was 1 or 2 ng/ml. Pharmacokinetic analyses of the mean plasma concentration-time profiles were performed by using WinNonlin Pro version 5.2. A compartmental model was used for the data for i.v. dosing, and a noncompartmental model was used for the data for p.o. dosing. […] Compounds 1 and 13 were formulated in saline (0.9% [wt/vol] NaCl) at 7.5 mg/ml, and the pH was adjusted to >5 by the addition of NaOH. Compound 11 was formulated to 6.5 mg/ml in water-dimethylacetamide-ethanol (EtOH) (76:19:5), and the pH was adjusted to >5 by the addition of NaOH. Compound 12 was formulated to 7.5 mg/ml in PEG 300-propylene glycol (PG)-water (55:25:20), and the pH was adjusted to >5 by the addition of NaOH.

[8] = molecular target: M. tuberculosis LeuRS editing domain (Mycobacterium tuberculosis, UniProt P9WFV1); assay: biochemical; assay type: binding; details: ITC, 25°C, with AMP
[9] = in vitro; assay type: in vitro ADME; details: mouse plasma, 1 and 10 µg/ml, ultrafiltration; read-out: Mouse PPB (converted)
Description: Compounds were added to 1.5-ml aliquots of mouse plasma at concentrations of 1 and 10 µg/ml and then incubated in a shaking water bath at 37°C for 15 min. Both samples were treated similarly, and a 0.5-ml aliquot was removed from each tube and added to the filter reservoir of Microcon centrifugal filter devices (Ultracel YM-30 with a molecular mass cutoff of 30 kDa). The devices were centrifuged at 1,000 × g for 10 min, and 100 μl of the filtrate was transferred to a 96-well plate and diluted 5-fold. Ten-microliter volumes of the samples were injected and analyzed with the LC-MS/MS system. All samples were analyzed in duplicate. Quantitation was based on the peak area ratio of the analyte over the internal standard, and all integrations were performed with peak areas by using Analyst version 1.4.1 (Applied Biosystems, Foster City, CA, USA). Plasma protein binding was calculated based on the following equation: Plasma Protein Binding (%)=(PeakAreaPlasma UltrafilrateSpiked−PeakAreaPlasmaFiltrate)/PeakAreaPlasma UltrafiltrateSpiked×100

M. tuberculosis LeuRS editing domain, sequence (P9WFV1 309-513): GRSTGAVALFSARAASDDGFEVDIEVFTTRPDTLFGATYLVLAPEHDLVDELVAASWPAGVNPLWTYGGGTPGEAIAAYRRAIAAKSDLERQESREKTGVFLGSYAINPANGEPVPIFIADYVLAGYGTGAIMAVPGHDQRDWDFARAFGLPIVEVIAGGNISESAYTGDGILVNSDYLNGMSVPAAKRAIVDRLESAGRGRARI
M. tuberculosis LeuRS, sequence (P9WFV1 whole entry): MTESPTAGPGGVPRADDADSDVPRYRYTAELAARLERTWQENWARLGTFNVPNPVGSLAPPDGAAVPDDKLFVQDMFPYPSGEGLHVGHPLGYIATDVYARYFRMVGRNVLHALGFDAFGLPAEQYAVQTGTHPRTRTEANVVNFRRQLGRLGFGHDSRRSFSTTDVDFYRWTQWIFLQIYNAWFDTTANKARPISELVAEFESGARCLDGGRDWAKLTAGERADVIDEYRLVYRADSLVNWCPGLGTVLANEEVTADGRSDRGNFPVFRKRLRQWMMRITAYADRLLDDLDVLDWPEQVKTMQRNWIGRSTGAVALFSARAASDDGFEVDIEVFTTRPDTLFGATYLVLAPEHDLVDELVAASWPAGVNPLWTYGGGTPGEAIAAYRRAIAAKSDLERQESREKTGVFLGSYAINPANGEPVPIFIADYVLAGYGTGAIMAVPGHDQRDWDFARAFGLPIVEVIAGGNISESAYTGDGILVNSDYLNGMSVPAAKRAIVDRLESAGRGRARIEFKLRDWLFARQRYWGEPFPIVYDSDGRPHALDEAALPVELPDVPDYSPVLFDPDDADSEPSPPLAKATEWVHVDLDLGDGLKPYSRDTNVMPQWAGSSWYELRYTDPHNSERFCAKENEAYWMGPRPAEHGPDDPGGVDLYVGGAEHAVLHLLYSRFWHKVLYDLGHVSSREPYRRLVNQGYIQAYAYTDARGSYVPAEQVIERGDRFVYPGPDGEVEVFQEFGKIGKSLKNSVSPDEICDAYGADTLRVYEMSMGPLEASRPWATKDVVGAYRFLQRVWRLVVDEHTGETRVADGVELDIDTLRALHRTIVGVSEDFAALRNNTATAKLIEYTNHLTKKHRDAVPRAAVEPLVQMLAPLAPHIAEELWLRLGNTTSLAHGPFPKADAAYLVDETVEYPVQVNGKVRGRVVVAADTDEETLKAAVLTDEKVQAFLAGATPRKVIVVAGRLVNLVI

## OB1OCc2ccccc21 [AN2679]
[1]; read-out: IC50 M.tb LeuRS
  IC50: 21.3 µM
[2]
  MIC: 7.5 µg/mL (≈ 56 µM)

## OCCCOc1cccc2c1B(O)OC2 [AN3016]
[1]; read-out: IC50 M.tb LeuRS
  IC50: 3.5 µM
[2]
  MIC M.tb H37Rv: 1.0 µg/mL (≈ 4.81 µM)
  MIC: 1 µg/mL (≈ 4.81 µM)

## NCC1OB(O)c2ccccc21 (centres unmarked) [AN3017]
[1]; read-out: IC50 M.tb LeuRS
  IC50: 0.64 µM
[2]
  MIC: 1.8 µg/mL (≈ 11 µM)

## O=C(N[C@H](CO)[C@H](O)c1ccc([N+](=O)[O-])cc1)C(Cl)Cl [Chloramphenicol, chloramphenicol]
[3]
  EC50: 110 ± 14.1 µM
[4]
  EC50: > 150 µM
[5]
  EC50: 31.4 ± 23.2 µM

## CCOc1cccc2c1B(O)O[C@@H]2CN [Compound 2]
[1]; read-out: IC50 M.tb LeuRS
  IC50: 0.13 µM
[6]
  EC50: > 50 µM
[2]
  MIC: 0.13 µg/mL (≈ 0.628 µM)
[7]; i.v.
  α-t1/2 % AUC: 5 % AUC
  β-t1/2 % AUC: 95 % AUC
[7]; in vivo, iv
  AUC(0-inf): 13800 ng·h/mL
  Cmax: 8900 ng/mL
  MRT: 2.1 h
  Vd: 2.12 L/kg
  clearance: 36.3 mL/min/kg
[7]; in vivo, iv, α-t1/2, mouse
  half-life: 0.06 h
[7]; in vivo, iv, β-t1/2, mouse
  half-life: 1.5 h
[7]; in vivo, po
  AUC(0-t): 13200 ng·h/mL
  Cmax: 3400 ng/mL
  Tmax: 0.5 h
  bioavailability: 96%
[7]; in vivo, po, Terminal t1/2, mouse
  half-life: 1.8 h
[8]
  No. of sites: 1.05
  ΔGap: -7.4 kcal/mol
  ΔHap: -1.1 kcal/mol
  −TΔSap: -6.3 kcal/mol
[8]; read-out: Kd
  Kd: 3.7 µM
[9]
  fraction unbound: 0.94

## CCOc1cccc2c1B(O)O[C@H]2CN [Compound 3]
[1]; read-out: IC50 M.tb LeuRS
  IC50: 21 µM
[6]
  EC50: > 50 µM

## CCOc1ccc(Cl)c2c1B(O)OC2CN (centres unmarked) [Compound 4]
[1]
  IC50: 0.09 µM
[6]
  EC50: > 50 µM
[2]
  improvement of MIC values over compound 1: more than 5 fold
  MIC: 0.04 µg/mL (≈ 0.166 µM)

## CCOc1cc(Cl)cc2c1B(O)OC2CN (centres unmarked) [Compound 5]
[1]; read-out: IC50 M.tb LeuRS
  IC50: 0.38 µM
[6]
  EC50: 43 µM
[2]
  MIC M.tb H37Rv: ≥ 1.1 µg/mL
  MIC: 1.2 µg/mL (≈ 4.97 µM)

## CCOc1ccc(F)c2c1B(O)OC2CN (centres unmarked) [Compound 6]
[1]; read-out: IC50 M.tb LeuRS
  IC50: 0.11 µM
[6]
  EC50: > 50 µM
[2]
  improvement of MIC values over compound 1: more than 5 fold
  MIC: 0.05 µg/mL (≈ 0.222 µM)
